Source: patent US11639353B2, “Cyclobutanes- and azetidine-containing mono and spirocyclic compounds as αV integrin inhibitors” (BRISTOL-MYERS SQUIBB COMPANY, priority 2016, dated 2023)

Target: T1, human αVβ6 (Homo sapiens, UniProt P06756+P18564)
T1 construct: purchased R & D systems 3817-AV
Experiment: human αVβ6 HTRF binding assay
Conditions: alternatively SPA-based assay
Protocol: All binding assays used the HTRF (homogeneous time resolved fluorescence) technology from Cisbio International, therefore all assays are described as HTRF binding assays. The assay results for the Examples are listed above together with the characterization data. The HTRF binding assays are established for the following integrins: human αVβ6, human αVβ1, human αVβ3, human αVβ5, and human αVβ8. All assays used the following assay buffer: 20 mM Tris, pH 7.4, 1 mM MgCl2, 1 mM MnCl2, 0.01% Tween 20, and 0.01% BSA. Alternatively, a SPA-based assay was used for evaluation of receptor binding.
The following describes the components and a representative procedure for the human αVβ6 HTRF binding assay: Recombinant human αVβ6 Integrin (R & D systems, 3817-AV) was biotinylated. Biotinylated human αVβ6 Integrin was added to assay vessel at a final concentration of 1.25 nM. FITC-conjugated fibronectin (Cytoskeleton, FNR02) was then added at the final concentration of 5 nM. The mixture was centrifuged at 600 rpm for three minutes using Thermo Fisher Heraeus Multifuge X3 centrifuge and then incubated at RT for an hour. Streptavidin Terbium (Cisbio international 610STLB) was then added at the final concentration of 0.625 nM. The resulting mixture was centrifuged at 600 rpm for three minutes using Thermo Fisher Heraeus Multifuge X3 centrifuge and then incubated at room temperature overnight in dark before reading HTRF signals.
The SPA-based assay was carried out according to the protocol and procedures similar to the ones described in the following reference with appropriate modifications to agents and ligands which are readily understood by one skilled in the art: Pachter J A, Zhang R, Mayer-Ezell R., “Scintillation proximity assay to measure binding of soluble fibronectin to antibody-captured αVβ1 integrin” Anal Biochem. 1995 Sep. 1; 230(1):101-7.

T1 sequence (P06756 31-992 limits assumed): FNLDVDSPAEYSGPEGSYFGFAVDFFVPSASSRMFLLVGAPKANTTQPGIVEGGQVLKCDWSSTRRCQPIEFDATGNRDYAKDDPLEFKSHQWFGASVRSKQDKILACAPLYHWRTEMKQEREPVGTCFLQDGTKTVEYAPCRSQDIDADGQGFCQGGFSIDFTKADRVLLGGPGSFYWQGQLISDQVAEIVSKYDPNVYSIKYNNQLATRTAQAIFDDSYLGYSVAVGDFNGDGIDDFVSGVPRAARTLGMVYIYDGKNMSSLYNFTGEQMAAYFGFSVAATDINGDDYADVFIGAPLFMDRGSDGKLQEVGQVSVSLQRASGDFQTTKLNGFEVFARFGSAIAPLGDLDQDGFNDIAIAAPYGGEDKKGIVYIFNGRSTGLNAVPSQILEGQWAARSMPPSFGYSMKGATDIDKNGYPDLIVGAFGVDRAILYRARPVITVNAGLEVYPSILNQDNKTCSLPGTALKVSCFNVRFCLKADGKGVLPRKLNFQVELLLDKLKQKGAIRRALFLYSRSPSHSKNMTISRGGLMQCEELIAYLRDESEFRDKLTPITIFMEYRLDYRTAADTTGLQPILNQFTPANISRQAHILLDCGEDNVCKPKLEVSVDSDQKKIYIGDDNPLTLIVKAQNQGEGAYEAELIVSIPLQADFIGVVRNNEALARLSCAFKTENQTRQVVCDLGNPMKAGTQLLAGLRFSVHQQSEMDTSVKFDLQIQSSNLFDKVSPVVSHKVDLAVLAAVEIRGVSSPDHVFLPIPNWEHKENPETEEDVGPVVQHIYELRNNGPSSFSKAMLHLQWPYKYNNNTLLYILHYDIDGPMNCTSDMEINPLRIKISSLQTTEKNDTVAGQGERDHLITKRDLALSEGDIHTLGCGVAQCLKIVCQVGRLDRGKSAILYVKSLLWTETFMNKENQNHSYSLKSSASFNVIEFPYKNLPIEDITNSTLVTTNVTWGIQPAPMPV
T1 sequence (P18564 22-707 limits assumed): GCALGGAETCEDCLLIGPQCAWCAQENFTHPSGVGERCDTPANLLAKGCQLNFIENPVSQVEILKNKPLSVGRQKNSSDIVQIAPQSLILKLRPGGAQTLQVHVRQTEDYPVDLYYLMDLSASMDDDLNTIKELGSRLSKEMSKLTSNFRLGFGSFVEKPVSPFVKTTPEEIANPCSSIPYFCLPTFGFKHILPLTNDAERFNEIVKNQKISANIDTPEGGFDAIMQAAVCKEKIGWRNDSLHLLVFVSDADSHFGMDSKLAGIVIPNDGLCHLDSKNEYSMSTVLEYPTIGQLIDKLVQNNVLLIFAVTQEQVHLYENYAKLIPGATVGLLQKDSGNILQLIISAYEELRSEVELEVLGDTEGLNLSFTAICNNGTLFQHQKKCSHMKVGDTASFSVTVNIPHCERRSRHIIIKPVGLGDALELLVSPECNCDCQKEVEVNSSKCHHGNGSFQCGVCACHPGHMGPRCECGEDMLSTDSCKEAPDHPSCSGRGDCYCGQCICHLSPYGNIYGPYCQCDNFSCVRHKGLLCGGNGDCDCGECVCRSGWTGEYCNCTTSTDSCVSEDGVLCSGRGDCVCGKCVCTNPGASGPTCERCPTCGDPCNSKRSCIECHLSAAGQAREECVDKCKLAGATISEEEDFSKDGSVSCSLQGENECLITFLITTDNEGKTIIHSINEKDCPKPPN

Molecule | IC50
COc1ccc(C(CC(=O)O)N2CC3(CC(CCc4ccc5c(n4)NCCC5)C3)C2)cn1 (centres unmarked) [Example 205] | 3.7 nM
COc1ccc([C@H](CC(=O)O)N2CC(CCCc3ccc4c(n3)NCCC4)C2)cn1 [Example 169] | 4 nM
O=C(O)C[C@@H](c1ccc(F)c(F)c1)N1CC(CCCCc2ccc3c(n2)NCCC3)C1 [Example 154] | 1.1 nM
O=C(O)C[C@H](NC(=O)C1(F)CN(CCc2ccc3c(n2)NCCC3)C1)c1ccc2c(c1)OCC2 [Example 81] | 0.93 nM
O=C(O)C[C@H](NC(=O)[C@H]1C[C@@H](CCc2ccc3c(n2)NCCC3)C1)c1cncnc1 [Example 91] | 2.9 nM
O=C(O)C[C@H](NC(=O)C1CC2(C1)CN(CCc1ccc3c(n1)NCCC3)C2)c1cc(Cl)cc(Cl)c1 [Example 33] | 2.7 nM
COc1ccc([C@H](CC(=O)O)NC2CC3(C2)CN(CCc2ccc4c(n2)NCCC4)C3)cn1 [Example 75] | 17 nM
Cc1cc(C)n(-c2cccc(C(CC(=O)O)N3CC4(CC(CCc5ccc6c(n5)NCCC6)C4)C3)c2)n1 (centres unmarked) [Example 207] | 2.8 nM
COc1ccc(C(CC(=O)O)C2CC(CCCCc3ccc4c(n3)NCCC4)C2)cn1 (centres unmarked) [Example 138, 3-(6-Methoxypyridin-3-yl)-3-(3-(4-(5,6,7,8-tetrahydro-1,8-naphthyridin-2-yl)butyl)cyclobutyl)propanoic acid] | 3.2 nM
Cc1cc(C)c(S(=O)(=O)N[C@@H](CN2CC(CCCc3ccc4c(n3)NCCC4)C2=O)C(=O)O)c(C)c1 (single isomer, unassigned) [Example 185] | 18 nM
O=C(N[C@@H](CCN1CC2(CC(CCc3ccc4c(n3)NCCC4)C2)C1)C(=O)O)OCc1ccccc1 [Example 8, (S)-2-(((Benzyloxy)carbonyl)amino)-4-(6-(2-(5,6,7,8-tetrahydro-1,8-naphthyridin-2-yl)ethyl)-2-azaspiro[3.3]heptan-2-yl)butanoic acid] | 2 nM
COc1ccc([C@H](CC(=O)O)N2CC(CCCc3ccc4c(n3)NCCC4)C2=O)cn1 (single isomer, unassigned) [Example 181] | 25 nM
O=C(O)C[C@@H](c1cc(F)cc(F)c1)N1CC(F)(CCCCc2ccc3c(n2)NCCC3)C1 [Example 162, (S)-3-(3,5-difluorophenyl)-3-(3-fluoro-3-(4-(5,6,7,8-tetrahydro-1,8-naphthyridin-2-yl)butyl)azetidin-1-yl)propanoic acid] | 2 nM
O=C(O)C[C@@H](c1cnc2ccccc2c1)N1CC(CCCCc2ccc3c(n2)NCCC3)C1 [Example 153] | 1.1 nM
COc1ncc([C@H](CC(=O)O)N2CC(CCCCc3ccc4c(n3)NCCC4)C2=O)cn1 (some centres unmarked) [Example 70] | 5.8 nM
O=C(O)CC(NC(=O)[C@H]1C[C@H](CCc2ccc3c(n2)NCCC3)C1)c1cnc(C(F)(F)F)nc1 (single isomer, unassigned) [Example 193, 3-(trans-3-(2-(5,6,7,8-Tetrahydro-1,8-naphthyridin-2-yl)ethyl)cyclobutane-1-carboxamido)-3-(2-(trifluoromethyl)pyrimidin-5-yl)propanoic acid] | 5.7 nM
COc1ccc([C@H](CC(=O)O)N2CC(F)(CCCCc3ccc4c(n3)NCCC4)C2)cc1F [Example 165] | 2.5 nM
O=C(O)C[C@@H](c1ccc(F)c(F)c1)N1CC(CCCCc2ccc3c(n2)NCCC3)C1=O (some centres unmarked) [Example 112] | 3.9 nM
O=C(O)C[C@H](NC(=O)C1CC2(C1)CN(CCCc1ccc3c(n1)NCCC3)C2)c1cc(Cl)cc(Cl)c1 [Example 3, (S)-3-(3,5-Dichlorophenyl)-3-(2-(3-(5,6,7,8-tetrahydro-1,8-naphthyridin-2-yl)propyl)-2-azaspiro[3.3]heptane-6-carboxamido)propanoic acid] | 21 nM
Cc1cc(C)c(S(=O)(=O)N[C@@H](CNC2CN(CCCc3ccc4c(n3)NCCC4)C2)C(=O)O)c(C)c1 [Example 73] | 6.5 nM
Cc1cc(C)c(S(=O)(=O)N[C@@H](CNC(=O)C2CC3(CC(CCc4ccc5c(n4)NCCC5)C3)C2)C(=O)O)c(C)c1 (stereo partly drawn) [Example 5, (S)-3-(6-(2-(5,6,7,8-Tetrahydro-1,8-naphthyridin-2-yl)ethyl)spiro[3.3]heptane-2-carboxamido)-2-((2,4,6-trimethylphenyl)sulfonamido)propanoic acid] | 1.3 nM
COc1ccc(C(CC(=O)O)C2CC(CCCCc3ccc4c(n3)NCCC4)C2)cn1 (single isomer, unassigned; diastereomer b) [Example 140, 3-(6-Methoxypyridin-3-yl)-3-(3-(4-(5,6,7,8-tetrahydro-1,8-naphthyridin-2-yl)butyl)cyclobutyl)propanoic acid (Diastereomer B)] | 7.7 nM
O=C(C[C@H](NC(=O)OCc1ccccc1)C(=O)O)NC1CC(CCc2ccc3c(n2)NCCC3)C1 (some centres unmarked) [Example 64] | 4 nM
Cc1nc2c(cc1CCN1CC3(CC(C(=O)N[C@@H](CC(=O)O)c4cc(Cl)cc(Cl)c4)C3)C1)CCCN2 [Example 4, (S)-3-(3,5-Dichlorophenyl)-3-(2-(2-(2-methyl-5,6,7,8-tetrahydro-1,8-naphthyridin-3-yl)ethyl)-2-azaspiro[3.3]heptane-6-carboxamido)propanoic acid] | 25 nM

Molecule | IC50
COc1ccc([C@H](CC(=O)O)NC(=O)C2CC3(C2)CN(CCCc2ccc4c(n2)NCCC4)C3)cn1 [Example 32] | 130 nM
COc1ccc([C@@H](CC(=O)O)C2(F)CN(C(=O)CCCc3ccc4c(n3)NCCC4)C2)cc1F [Example 95] | 230 nM
O=C(O)C[C@H](NC1CN(CCCc2ccc3c(n2)NCCC3)C1)c1cc(Cl)cc(Cl)c1 [Example 74] | 0.5 nM
O=C(O)C[C@H](NC(=O)C1CC2(CC(NC(=O)CCc3ccc4c(n3)NCCC4)C2)C1)c1cc(Cl)cc(Cl)c1 (some centres unmarked) [Example 29] | 2000 nM
COc1ccc([C@H](CC(=O)O)N2CC(CCCc3ccc4c(n3)NCCC4)C2=O)cn1 (single isomer, unassigned) [Example 182] | 5.7 nM
CCCOC(=O)N[C@@H](CC(=O)N1CC(CCc2ccc3c(n2)NCCC3)C1)C(=O)O [Example 175] | 735 nM
COc1ccc([C@H](CC(=O)O)N2CC(C)(CCCCc3ccc4c(n3)NCCC4)C2=O)cn1 (single isomer, unassigned) [Example 178] | 102 nM
(S)-Ethyl 3-(6-methoxypyridin-3-yl)-3-(1-methyl-3-(2-(5,6,7,8-tetrahydro-1,8-naphthyridin-2-yl)ethyl)cyclobutanecarboxamido)propanoate [Example 15] | 5.2 nM
COc1ccc([C@H](CC(=O)O)N2CC(CCCCc3ccc4c(n3)NCCC4)C2)cn1 [Example 151] | 3.6 nM
O=C(O)C[C@@H](c1cncnc1)N1CC(CCCCc2ccc3c(n2)NCCC3)C1 [Example 157] | 3 nM
O=C(N[C@@H](CC(=O)N1CC2(CC(CCc3ccc4c(n3)NCCC4)C2)C1)C(=O)O)OCc1ccccc1 [Example 61] | 20 nM
O=C(O)C[C@@H](c1cc(F)cc(F)c1)N1CC(CCCCc2ccc3c(n2)NCCC3)C1 [Example 152] | 1.4 nM
COc1ccc([C@H](CC(=O)O)N2CC(CCCCc3ccc4c(n3)NCCC4)C2=O)cn1 (some centres unmarked) [Example 68] | 2.4 nM
COc1ccc([C@H](CC(=O)O)NC(=O)C2CN(CCc3ccc4c(n3)NCCC4)C2)cn1 [Example 37] | 1 nM
O=C(O)C[C@@H](c1cc(Cl)cc(Cl)c1)N1CC(CCCCc2ccc3c(n2)NCCC3)C1=O (some centres unmarked) [Example 109] | 0.89 nM
COc1ccc(C(CC(=O)O)N2CC3(CC(Cc4ccc5c(n4)NCCC5)C3)C2)cn1 (centres unmarked) [Example 208, 3-(6-methoxypyridin-3-yl)-3-(6-((5,6,7,8-tetrahydro-1,8-naphthyridin-2-yl)methyl)-2-azaspiro[3.3]heptan-2-yl)propanoic acid] | 2.4 nM
COc1ccc(C(CC(=O)O)C2CC3(C2)CN(CCc2ccc4c(n2)NCCC4)C3)cn1 (centres unmarked) [Example 100] | 2.4 nM
CCCOC(=O)N[C@@H](CNC(=O)[C@H]1C[C@@H](Cc2ccc3c(n2)NCCC3)C1)C(=O)O [Example 198] | 1.9 nM
O=C(O)CCC1CC2(C1)CC(CCc1ccc3c(n1)NCCC3)C2 (centres unmarked) [Example 124] | 93 nM
COC(=O)N(C1CC2(C1)CN(CCc1ccc3c(n1)NCCC3)C2)[C@@H](CC(=O)O)c1cc(Cl)cc(Cl)c1 [Example 19, (S)-3-(3,5-Dichlorophenyl)-3-((methoxycarbonyl)(2-(2-(5,6,7,8-tetrahydro-1,8-naphthyridin-2-yl)ethyl)-2-azaspiro[3.3]heptan-6-yl)amino)propanoic acid] | 84.5 nM
O=C(O)CCN(C(=O)OCc1ccccc1)C1CN(CCCc2ccc3c(n2)NCCC3)C1 [Example 119] | 7.4 nM
COc1ccc([C@H](CC(=O)O)N2CC(F)(CCCCc3ccc4c(n3)NCCC4)C2)cn1 [Example 163] | 2.4 nM
CC(=O)N(CCCc1ccc2c(n1)NCCC2)C1CC(C(CC(=O)O)c2ccc3nccnc3c2)C1 (centres unmarked) [Example 150] | 6.7 nM
